Patent publication US20260232767A1, “INTERLEUKIN-23 RECEPTOR ANTAGONIST PEPTIDES FOR USE IN THE TREATMENT OF PSORIASIS” (Janssen Pharmaceutica NV, priority 2023, published 2026)

Tested on: subjects with moderate-to-severe plaque psoriasis
Experiment: Safety, adverse events, Example 2 through Week 56
Assay type: in vivo, human
Settings: Placebo → 100 mg QD
Source text: The LTE safety analysis was based on randomized participants in Example who entered the present long-term extension study and received at least one dose of study intervention (including a partial dose) during the study period.

Compound: CC(=O)NCCCC[C@@H]1NC(=O)[C@H](Cc2c[nH]c3c(C)cccc23)NC(=O)[C@H]([C@@H](C)O)NC(=O)[C@H](CC(N)=O)NC(=O)[C@@H](NC(C)=O)C(C)(C)SSC(C)(C)[C@@H](C(=O)N[C@@H](Cc2ccc(OCCN)cc2)C(=O)N[C@@H](Cc2ccc3ccccc3c2)C(=O)NC2(C(=O)N[C@@H](CCC(=O)O)C(=O)N[C@@H](CC(N)=O)C(=O)N[C@@H](Cc3cccnc3)C(=O)N(C)CC(N)=O)CCOCC2)NC1=O [IL-23 receptor antagonist peptide, Ac-[Pen]*-N-T-[W(7-Me)]-[Lys(Ac)]-[Pen]*-Phe[4-(2-aminoethoxy)]-[2-Nal]-[THP]-E-N-[3-Pal]-Sarc-NH2 (*[Pen]-[Pen]* formdisulfidebond)]
- Subjects with serious adverse event: Ventricular dysfunction (LTE Safety analysis set): 0
- Subjects with 1 or more treatment-emergent adverse events leading to discontinuation of study agent (Week 16-56): 0
- Subjects with AE leading to discontinuation: Alanine aminotransferase increased (Week 16-56): 0
- Subjects with AE leading to discontinuation: Aspartate aminotransferase increased (Week 16-56): 0
- Subjects with AE leading to discontinuation: Asthenia (Week 16-56): 0
- Subjects with AE leading to discontinuation: Chills (Week 16-56): 0
- Subjects with AE leading to discontinuation: Ear and labyrinth disorders (Week 16-56): 0
- Subjects with AE leading to discontinuation: Gamma-glutamyltransferase increased (Week 16-56): 0
- Subjects with AE leading to discontinuation: Gastrointestinal disorders (Week 16-56): 0
- Subjects with AE leading to discontinuation: General disorders and administration site conditions (Week 16-56): 0
- Subjects with AE leading to discontinuation: Headache (Week 16-56): 0
- Subjects with AE leading to discontinuation: Insomnia (Week 16-56): 0
- Subjects with AE leading to discontinuation: Investigations (Week 16-56): 0
- Subjects with AE leading to discontinuation: Nervous system disorders (Week 16-56): 0
- Subjects with AE leading to discontinuation: Proctalgia (Week 16-56): 0
- Subjects with AE leading to discontinuation: Psoriasis (Week 16-56): 0
- Subjects with AE leading to discontinuation: Psychiatric disorders (Week 16-56): 0
- Subjects with AE leading to discontinuation: Skin and subcutaneous tissue disorders (Week 16-56): 0
- Subjects with AE leading to discontinuation: Vertigo (Week 16-56): 0
- Subjects with AE leading to discontinuation: Vomiting (Week 16-56): 0
- Subjects with treatment-emergent AE: Headache (Week 16-56): 0
- Subjects with treatment-emergent AE: Meniscus injury (Week 16-56): 0
- Subjects with treatment-emergent AE: Nasopharyngitis (Week 16-56): 9
- Subjects with treatment-emergent AE: Sinusitis (Week 16-56): 0
- Subjects with treatment-emergent AE: Vomiting (Week 16-56): 0
- Subjects with treatment-emergent serious AE: Cardiac disorders (Week 16-56): 0
- Subjects with treatment-emergent serious AE: Coronary artery disease (Week 16-56): 0
- Subjects with treatment-emergent serious AE: Diverticulitis (Week 16-56): 0
- Subjects with treatment-emergent serious AE: Foot deformity (Week 16-56): 0
- Subjects with treatment-emergent serious AE: General disorders and administration site conditions (Week 16-56): 0
- Subjects with treatment-emergent serious AE: Infections and infestations (Week 16-56): 0
- Subjects with treatment-emergent serious AE: Injury, poisoning and procedural complications (Week 16-56): 0
- Subjects with treatment-emergent serious AE: Intervertebral disc protrusion (Week 16-56): 0
- Subjects with treatment-emergent serious AE: Ligament injury (Week 16-56): 0
- Subjects with treatment-emergent serious AE: Musculoskeletal and connective tissue disorders (Week 16-56): 0
- Subjects with treatment-emergent serious AE: Neoplasms benign, malignant and unspecified (incl cysts and polyps) (Week 16-56): 0
- Subjects with treatment-emergent serious AE: Non-cardiac chest pain (Week 16-56): 0
- Subjects with treatment-emergent serious AE: Respiratory, thoracic and mediastinal disorders (Week 16-56): 0
- Subjects with treatment-emergent serious AE: Tonsillar hypertrophy (Week 16-56): 0
- Subjects with treatment-emergent serious AE: Uterine leiomyoma (Week 16-56): 0
- Subjects with treatment-emergent serious AE: Ventricular dysfunction (Week 16-56): 0
- Acrochordon: number of subjects (through Week 56): 0
- Actinic keratosis: number of subjects (through Week 56): 0
- Alopecia: number of subjects (through Week 56): 0
- Asthenia: number of subjects (through Week 56): 0
- Asthma: number of subjects (through Week 56): 0
- Atrioventricular block first degree: number of subjects (through Week 56): 0
- Basal cell carcinoma: number of subjects (through Week 56): 0
- Blood and lymphatic system disorders: number of subjects (through Week 56): 0
- Bronchitis chronic: number of subjects (through Week 56): 0
- Bundle branch block right: number of subjects (through Week 56): 0
- Cardiac disorders: number of subjects (through Week 56): 0
- Chills: number of subjects (through Week 56): 0
- Cholelithiasis: number of subjects (through Week 56): 0
- Chronic obstructive pulmonary disease: number of subjects (through Week 56): 0
- Coronary artery disease: number of subjects (through Week 56): 0
- Cough: number of subjects (through Week 56): 0
- Decreased appetite: number of subjects (through Week 56): 0
- Depression: number of subjects (through Week 56): 0
- Dermal cyst: number of subjects (through Week 56): 0
- Dermatitis acneiform: % of subjects (through Week 56): (2.9%)
- Dermatitis acneiform: number of subjects (through Week 56): 1
- Dermatitis contact: number of subjects (through Week 56): 0
- Diabetes mellitus: number of subjects (through Week 56): 0
- Diffuse alopecia: number of subjects (through Week 56): 0
- Dysuria: % of subjects (through Week 56): (2.9%)
- Dysuria: number of subjects (through Week 56): 1
- Ear and labyrinth disorders: number of subjects (through Week 56): 0
- Endocrine disorders: number of subjects (through Week 56): 0
- Eye disorders: % of subjects (through Week 56): (5.7%)
- Eye disorders: number of subjects (through Week 56): 2
- Eyelid skin dryness: number of subjects (through Week 56): 0
- Fatigue: number of subjects (through Week 56): 0
- General disorders and administration site conditions: number of subjects (through Week 56): 0
- Goiter: number of subjects (through Week 56): 0
- Haemochromatosis: % of subjects (through Week 56): (2.9%)
- Haemochromatosis: number of subjects (through Week 56): 1
- Hand dermatitis: % of subjects (through Week 56): (2.9%)
- Hand dermatitis: number of subjects (through Week 56): 1
- Hematuria: % of subjects (through Week 56): (2.9%)
- Hematuria: number of subjects (through Week 56): 1
- Hepatobiliary disorders: % of subjects (through Week 56): (2.9%)
- Hepatobiliary disorders: number of subjects (through Week 56): 1
- Hypercholesterolemia: number of subjects (through Week 56): 0
- Hyperglycemia: number of subjects (through Week 56): 0
- Hyperlipidemia: number of subjects (through Week 56): 0
- Hypertension: % of subjects (through Week 56): (2.9%)
- Hypertension: number of subjects (through Week 56): 1
- Hypertransaminasemia: % of subjects (through Week 56): (2.9%)
- Hypertransaminasemia: number of subjects (through Week 56): 1
- Hypertriglyceridemia: number of subjects (through Week 56): 0
- Hypoacusis: number of subjects (through Week 56): 0
- Immune system disorders: number of subjects (through Week 56): 0
- Influenza like illness: number of subjects (through Week 56): 0
- Insomnia: number of subjects (through Week 56): 0
- Intertrigo: number of subjects (through Week 56): 0
- Ketonuria: number of subjects (through Week 56): 0
- Leukocyturia: number of subjects (through Week 56): 0
- Leukopenia: number of subjects (through Week 56): 0
- Libido decreased: number of subjects (through Week 56): 0
- Liver disorder: number of subjects (through Week 56): 0
- Lymphopenia: number of subjects (through Week 56): 0
- Menopause: number of subjects (through Week 56): 0
- Metabolism and nutrition disorders: % of subjects (through Week 56): (2.9%)
- Metabolism and nutrition disorders: number of subjects (through Week 56): 1
- Neoplasms benign, malignant and unspecified (incl cysts and polyps): number of subjects (through Week 56): 0
- Nephrolithiasis: number of subjects (through Week 56): 0
- Neutropenia: number of subjects (through Week 56): 0
- Night sweats: number of subjects (through Week 56): 0
- Non-cardiac chest pain: number of subjects (through Week 56): 0
- Ocular cyst: % of subjects (through Week 56): (2.9%)
- Ocular cyst: number of subjects (through Week 56): 1
- Oedema peripheral: number of subjects (through Week 56): 0
- Oropharyngeal pain: % of subjects (through Week 56): (2.9%)
- Oropharyngeal pain: number of subjects (through Week 56): 1
- Procedural pain: number of subjects (through Week 56): 0
- Productive cough: number of subjects (through Week 56): 0
- Proteinuria: number of subjects (through Week 56): 0
- Pruritus: number of subjects (through Week 56): 0
- Psoriasis: number of subjects (through Week 56): 0
- Psychiatric disorders: number of subjects (through Week 56): 0
